In patent US12448362B2, “Fluorine-containing pyrimidine compound and fluorine-containing pyrimidinone compound” (UNIMATEC CO., LTD., priority 2020, dated 2025) one finds Control value data, which are given here for 2 molecules.

The assay relates to cucumber powdery mildew. The experiment in a line: Evaluation test for cucumber powdery mildew (cucumber leaf disc, lesion area after 14 days). It counts as in vivo. Particulars: 500 ppm in acetone; cucumber leaf disc sprayed with spore suspension; 25° C., 12 hours illumination; lesion area after 14 days vs untreated section. On the procedure: Each of the fluorine-containing pyrimidine compounds prepared in Examples 32 and 36 was dissolved in acetone and diluted to a concentration of 500 ppm. Subsequently, a cucumber leaf disc (20 mm in diameter) was put into the diluted acetone solution and completely wetted, and then the cucumber leaf disc was placed so that the back surface of the cucumber leaf disc was in contact with a plain agar medium that had been prepared separately, and air-dried. After air-drying, a spore suspension of the cucumber powdery mildew was uniformly sprayed on the cucumber leaf disc and air-dried. The cucumber leaf disc was then left in a thermostat (25° C., 12 hours illumination), and after 14 days, the area of lesions was examined to calculate the control value. Note that the control value was calculated according to the following formula. In the following formula, “untreated” means that a cucumber leaf disc was wetted with only acetone as a test solution, and “untreated section” means a section of the wetted cucumber leaf disc. [formula]

Turning to `Cc1ccc(Nc2nc(-c3cccnc3)nc(Cl)c2C(F)(F)F)cc1` [Example 36, 6-chloro-N-(4-methylphenyl)-2-(3-pyridyl)-5-(trifluoromethyl)-4-pyrimidinamine], the Control value was found to be 67.9.

As to `Cc1ccc(Nc2nc(-c3ccccn3)nc(Cl)c2C(F)(F)F)cc1` [Example 32, 6-chloro-N-(4-methylphenyl)-2-(2-pyridyl)-5-(trifluoromethyl)-4-pyrimidinamine], the Control value is given as 57.1.
